Experiment: xn = mol fraction of the nth substance listed

CCC(C)N (configuration not stated) + O
viscosity [mPa·s], 101.33 kPa
Conditions | x1 = 0.1 | x1 = 0.1999 | x1 = 0.3 | x1 = 0.3998 | x1 = 0.4994 | x1 = 0.5999 | x1 = 0.6998 | x1 = 0.7997 | x1 = 0.8999
298.15 K | 2.276 | 2.556 | 2.232 | 1.774 | 1.322 | 0.9973 | 0.7605 | 0.5992 | 0.4885
303.15 K | 1.937 | 2.173 | 1.917 | 1.538 | 1.165 | 0.8899 | 0.6906 | 0.552 | 0.4543
308.15 K | 1.669 | 1.865 | 1.659 | 1.341 | 1.033 | 0.8024 | 0.6317 | 0.5102 | 0.4248
313.15 K | 1.453 | 1.616 | 1.443 | 1.18 | 0.921 | 0.7245 | 0.5794 | 0.4736 | 0.3983
318.15 K | 1.275 | 1.417 | 1.269 | 1.047 | 0.8266 | 0.6602 | 0.534 | 0.4409 | 0.3744
323.15 K | 1.138 | 1.25 | 1.123 | 0.9361 | 0.7467 | 0.61 | 0.4935 | 0.4113 | 0.3528

OCCOCCOCCOCCOCCOCCOCCOCCO + O
viscosity [mPa·s], 100 kPa
Conditions | 293.15 K | 298.15 K | 303.15 K | 308.15 K | 313.15 K | 318.15 K | 323.15 K
x2 = 0.042 | 108.4 | 81.84 | 63.33 | 50.05 | 40.2 | 32.83 | 27.17
x2 = 0.111 | 107.4 | 81.02 | 62.63 | 49.38 | 39.67 | 32.32 | 26.74
x2 = 0.267 | 103 | 77.64 | 60.34 | 47.5 | 38.03 | 30.97 | 25.55
x2 = 0.294 | 98.4 | 74.46 | 57.33 | 45.14 | 36.19 | 29.5 | 24.36

CC(=O)CC(C)C + CC(C)=O
298.15 K, 101 kPa
Conditions | viscosity [mPa·s]
x2 = 0.0872 | 0.5206
x2 = 0.2689 | 0.474
x2 = 0.3526 | 0.4524
x2 = 0.359 | 0.45
x2 = 0.5077 | 0.4139
x2 = 0.7067 | 0.366
x2 = 0.7731 | 0.3515
x2 = 0.8344 | 0.3373
x2 = 0.835 | 0.3362
x2 = 0.9323 | 0.3141

CCCCCCO + CCCCCCC
viscosity [mPa·s], 101.33 kPa
Conditions | x1 = 0.0567 | x1 = 0.1134 | x1 = 0.2217 | x1 = 0.3279 | x1 = 0.4307 | x1 = 0.5294 | x1 = 0.6292 | x1 = 0.7248 | x1 = 0.8643 | x1 = 0.9526
298.15 K | 0.4405 | 0.4541 | 0.5473 | 0.6831 | 0.8745 | 1.142 | 1.523 | 2.047 | 2.93 | 3.788
308.15 K | 0.396 | 0.4021 | 0.4788 | 0.5863 | 0.7378 | 0.9541 | 1.201 | 1.574 | 2.299 | 2.921

CCOCC + CCCCO
303.16 K, 101 kPa
Conditions | viscosity [mPa·s]
x1 = 0.09 | 1.958
x1 = 0.17 | 1.512
x1 = 0.27 | 0.9582
x1 = 0.4 | 0.8084
x1 = 0.51 | 0.6978
x1 = 0.6 | 0.5936
x1 = 0.67 | 0.4746
x1 = 0.74 | 0.3798
x1 = 0.81 | 0.291

CCC(C)N (configuration not stated) + Cc1ccccc1
303.15 K, 101 kPa
Conditions | viscosity [mPa·s]
x2 = 0.1499 | 0.4062
x2 = 0.216 | 0.4085
x2 = 0.2959 | 0.4124
x2 = 0.3889 | 0.419
x2 = 0.5124 | 0.4325
x2 = 0.613 | 0.4492
x2 = 0.7105 | 0.4679
x2 = 0.8708 | 0.4998

CC(=O)CC(C)C + CC(=O)O
viscosity [mPa·s]
Conditions | 293.15 K | 298.15 K | 308.15 K | 318.15 K
101.32 kPa, x1 = 0.048 | 1.179 | 1.085 | 0.9387 | 0.82
101.32 kPa, x1 = 0.102 | – | – | – | 0.7844
101.32 kPa, x1 = 0.103 | 1.122 | 1.037 | 0.8955 | –
101.32 kPa, x1 = 0.164 | 1.065 | 0.9866 | 0.8505 | 0.7456
101.32 kPa, x1 = 0.233 | – | – | – | 0.708
101.32 kPa, x1 = 0.234 | 1.004 | 0.9325 | 0.803 | –
101.32 kPa, x1 = 0.313 | – | – | – | 0.6696
101.32 kPa, x1 = 0.314 | 0.9417 | 0.8743 | 0.7592 | –
101.32 kPa, x1 = 0.405 | – | – | – | 0.6271
101.32 kPa, x1 = 0.406 | 0.8773 | 0.8108 | 0.7072 | –
101.32 kPa, x1 = 0.514 | 0.8105 | 0.752 | 0.6636 | 0.5844
101.32 kPa, x1 = 0.646 | – | – | – | 0.5401
101.32 kPa, x1 = 0.647 | 0.7427 | 0.688 | 0.6078 | –
101.32 kPa, x1 = 0.805 | – | 0.6272 | 0.5546 | 0.4944
101.32 kPa, x1 = 0.806 | 0.6691 | – | – | –
101.33 kPa, x1 = 0.048 | 1.179 | 1.085 | 0.9387 | 0.82
101.33 kPa, x1 = 0.102 | – | – | – | 0.7844
101.33 kPa, x1 = 0.103 | 1.122 | 1.037 | 0.8955 | –
101.33 kPa, x1 = 0.164 | 1.065 | 0.9866 | 0.8505 | 0.7456
101.33 kPa, x1 = 0.233 | – | – | – | 0.708
101.33 kPa, x1 = 0.234 | 1.004 | 0.9325 | 0.803 | –
101.33 kPa, x1 = 0.313 | – | – | – | 0.6696
101.33 kPa, x1 = 0.314 | 0.9417 | 0.8743 | 0.7592 | –
101.33 kPa, x1 = 0.405 | – | – | – | 0.6271
101.33 kPa, x1 = 0.406 | 0.8773 | 0.8108 | 0.7072 | –
101.33 kPa, x1 = 0.514 | 0.8105 | 0.752 | 0.6636 | 0.5844
101.33 kPa, x1 = 0.646 | – | – | – | 0.5401
101.33 kPa, x1 = 0.647 | 0.7427 | 0.688 | 0.6078 | –
101.33 kPa, x1 = 0.805 | – | 0.6272 | 0.5546 | 0.4944
101.33 kPa, x1 = 0.806 | 0.6691 | – | – | –

O=C1CCCCC1 + CC(=O)N(C)C
viscosity [mPa·s], 101 kPa
Conditions | 298.15 K | 308.15 K | 318.15 K
x1 = 0.1 | 1.024 | 0.873 | 0.75
x1 = 0.2001 | 1.095 | 0.907 | 0.76
x1 = 0.3001 | 1.182 | 0.956 | 0.782
x1 = 0.4001 | 1.28 | 1.018 | 0.823
x1 = 0.45 | 1.334 | 1.058 | 0.849
x1 = 0.4999 | 1.391 | 1.099 | 0.882
x1 = 0.5501 | 1.454 | 1.147 | 0.922
x1 = 0.5991 | 1.518 | 1.196 | 0.962
x1 = 0.7015 | 1.66 | 1.322 | 1.071
x1 = 0.7499 | 1.731 | 1.387 | 1.134
x1 = 0.7984 | 1.805 | 1.454 | 1.199
x1 = 0.8997 | 1.969 | 1.615 | 1.348

From the CheMixHub viscosity set
